Results taken from ChEMBL document CHEMBL1201862, “PubChem BioAssay data set” (2004).
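Method: 48-hour compound exposure of cells in 96-well plates, five concentrations, linear interpolation of endpoints. GI50 marks 50% less growth.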 Activity calls are given as the source filed them. Rule as the data show it: active = GI50 up to about 1.1 µM and inactive = higher.

Tests used:
Test in all cases: NCI anticancer screen, dose series, 48 h
SNB-78 = system: SNB-78
DLD-1 = system: DLD-1
KM-20L2 = system: KM-20L2
LXFL 529 = system: LXFL 529
DMS-114 = system: DMS-114
M19-MEL = system: M19-MEL
RXF 631 = system: RXF 631
XF498 = system: XF498
HOP-18 = system: HOP-18

In the case of `O=c1c2ccccc2sc2nc(CCl)nn12`, the GI50 (SNB-78) is reported as > 68.4 µM (inactive), the GI50 (DLD-1) is reported as 6.81 µM (inactive) and the GI50 (KM-20L2) is reported as 14.5 µM (inactive). The GI50 (LXFL 529) was 19.5 µM (inactive), the GI50 (DMS-114) was 17.6 µM (inactive) and the GI50 (M19-MEL) was 19.7 µM (inactive).

For `CN(C)/C(=N\C#N)NCc1ccccc1`, the GI50 (SNB-78) was > 100 µM (inactive), the GI50 (DLD-1) was > 100 µM (inactive) and the GI50 (KM-20L2) was > 100 µM (inactive). The GI50 (LXFL 529) was > 100 µM (inactive) and the GI50 (M19-MEL) was > 100 µM (inactive).

In the case of `O=c1[nH]c(=O)n(C2CC(O)C(O)C(CO)O2)cc1F` (stereo unspecified), the GI50 (SNB-78) is reported as > 100 µM (inactive), the GI50 (RXF 631) is reported as > 100 µM (inactive) and the GI50 (DLD-1) is reported as > 100 µM (inactive). For the same compound, the GI50 (KM-20L2) was > 100 µM (inactive), the GI50 (XF498) was > 100 µM (inactive) and the GI50 (HOP-18) was > 100 µM (inactive). The GI50 (LXFL 529) was > 100 µM (inactive), the GI50 (DMS-114) was > 100 µM (inactive) and the GI50 (M19-MEL) was > 100 µM (inactive).

For `O=C(O)c1ccccc1NC(=O)C1CCCCC1`, the GI50 (SNB-78) was > 100 µM (inactive), the GI50 (RXF 631) was > 100 µM (inactive) and the GI50 (DLD-1) was > 100 µM (inactive). The GI50 (KM-20L2) was > 100 µM (inactive), the GI50 (XF498) was > 100 µM (inactive) and the GI50 (LXFL 529) was > 100 µM (inactive). The GI50 (DMS-114) was > 100 µM (inactive) and the GI50 (M19-MEL) was > 100 µM (inactive).

In the case of `COc1cccc2c1C(=O)c1c(O)c3c(c(O)c1C2=O)C[C@@](O)(C(C)=O)C[C@@H]3OC1CC(N(C)C)C(O)C(C)O1` (stereo partly specified), the GI50 (SNB-78) is reported as 0.00873 µM (active), the GI50 (DLD-1) is reported as 0.0153 µM (active) and the GI50 (KM-20L2) is reported as 0.00603 µM (active). The GI50 (XF498) was 0.0001 µM (active), the GI50 (HOP-18) was 0.0859 µM (active) and the GI50 (LXFL 529) was 0.00684 µM (active). For the same compound, the GI50 (DMS-114) was 0.0475 µM (active) and the GI50 (M19-MEL) was 0.0213 µM (active).

For `COC(=O)/C(=N\NC(=O)C[N+](C)(C)C)C(C(=O)OC)C(=O)C(=O)Nc1ccccc1C(N)=O` (stereo unspecified), the GI50 (SNB-78) was > 100 µM (inactive), the GI50 (DLD-1) was > 100 µM (inactive) and the GI50 (KM-20L2) was > 100 µM (inactive). For the same compound, the GI50 (HOP-18) was > 100 µM (inactive), the GI50 (LXFL 529) was > 100 µM (inactive) and the GI50 (M19-MEL) was > 100 µM (inactive).

For `Cn1ccnc1CCc1ccc(Cl)c(Cl)c1`, the GI50 (SNB-78) was > 100 µM (inactive), the GI50 (DLD-1) was > 100 µM (inactive) and the GI50 (KM-20L2) was > 100 µM (inactive). For the same compound, the GI50 (HOP-18) was 47.1 µM (inactive), the GI50 (LXFL 529) was > 100 µM (inactive) and the GI50 (DMS-114) was 67.5 µM (inactive). The GI50 (M19-MEL) was > 100 µM (inactive).

With `C1=C2/CC[C@H](Sc3ccccc3)C2C2(CCCCC/1)OCCO2` (stereo partly specified) the GI50 (SNB-78) was 39.4 µM (inactive), the GI50 (DLD-1) was 33 µM (inactive) and the GI50 (KM-20L2) was 18.2 µM (inactive). The GI50 (XF498) was 22.7 µM (inactive), the GI50 (HOP-18) was 29.9 µM (inactive) and the GI50 (M19-MEL) was 15.6 µM (inactive).

`COc1ccc(NC(=O)CSc2nnc(-c3ccc(/N=C\c4ccc(Cl)cc4)cc3)o2)cc1` was tested, and the GI50 (SNB-78) was 24.9 µM (inactive), the GI50 (KM-20L2) was 39.6 µM (inactive) and the GI50 (XF498) was 17.1 µM (inactive). For the same compound, the GI50 (HOP-18) was 12.5 µM (inactive), the GI50 (LXFL 529) was 16.5 µM (inactive) and the GI50 (DMS-114) was 15.2 µM (inactive). For the same compound, the GI50 (M19-MEL) was 15 µM (inactive).

For `CCN(CC)CCSc1c2ccccc2nc2cc(NCC(=O)Nc3ccccc3-c3ccccc3NC(=O)CNc3ccc4c(SCCN(CC)CC)c5ccccc5nc4c3)ccc12`, the GI50 (RXF 631) was > 100 µM (inactive), the GI50 (DLD-1) was > 100 µM (inactive) and the GI50 (KM-20L2) was > 100 µM (inactive). For the same compound, the GI50 (XF498) was > 100 µM (inactive), the GI50 (HOP-18) was > 100 µM (inactive) and the GI50 (LXFL 529) was > 91 µM (inactive). The GI50 (M19-MEL) was 23 µM (inactive).

With `CC(C)(C)N1CC1CNC(=O)C(=O)NCC1CN1C(C)(C)C` (stereo unspecified) the GI50 (DLD-1) was 0.556 µM (active), the GI50 (KM-20L2) was 1.65 µM (inactive) and the GI50 (XF498) was 0.526 µM (active). For the same compound, the GI50 (HOP-18) was 1.07 µM (active), the GI50 (DMS-114) was 0.603 µM (active) and the GI50 (M19-MEL) was 1.26 µM (inactive).

With `CN[C@@H](C)[C@H](NC)c1ccccc1` the GI50 (SNB-78) was > 100 µM (inactive), the GI50 (RXF 631) was > 100 µM (inactive) and the GI50 (DLD-1) was > 100 µM (inactive). For the same compound, the GI50 (HOP-18) was > 100 µM (inactive), the GI50 (LXFL 529) was > 100 µM (inactive) and the GI50 (DMS-114) was > 100 µM (inactive). For the same compound, the GI50 (M19-MEL) was > 100 µM (inactive).

In the case of `CCCCCCCCCCCCCCCCCC(=O)Nc1ccn(C2OC(CO)C(O)C2O)c(=O)n1` (stereo unspecified), the GI50 (SNB-78) is reported as > 100 µM (inactive), the GI50 (DLD-1) is reported as > 100 µM (inactive) and the GI50 (KM-20L2) is reported as 32.1 µM (inactive). For the same compound, the GI50 (HOP-18) was > 100 µM (inactive), the GI50 (LXFL 529) was > 100 µM (inactive) and the GI50 (M19-MEL) was 5.69 µM (inactive).

`CCCCCCCCCCCC(=O)OC(COC(N)=O)COc1ccc(Cl)cc1` (stereo unspecified) was tested, and the GI50 (SNB-78) was 24.3 µM (inactive), the GI50 (RXF 631) was 26.2 µM (inactive) and the GI50 (DLD-1) was 38 µM (inactive). The GI50 (KM-20L2) was 37.8 µM (inactive), the GI50 (XF498) was 21.4 µM (inactive) and the GI50 (HOP-18) was 11.3 µM (inactive). For the same compound, the GI50 (LXFL 529) was 20.8 µM (inactive), the GI50 (DMS-114) was 17.3 µM (inactive) and the GI50 (M19-MEL) was 18.6 µM (inactive).

In the case of `CCCCn1/c(=N/C(=S)N(C)C)ss/c1=N\C(=S)N(C)C`, the GI50 (SNB-78) is reported as > 100 µM (inactive), the GI50 (DLD-1) is reported as > 100 µM (inactive) and the GI50 (KM-20L2) is reported as > 100 µM (inactive). The GI50 (XF498) was > 100 µM (inactive), the GI50 (HOP-18) was > 100 µM (inactive) and the GI50 (LXFL 529) was > 100 µM (inactive). The GI50 (M19-MEL) was > 100 µM (inactive).

For `O=C(CCC1C(=O)NC(=S)NC1=O)c1ccc2ccccc2c1`, the GI50 (SNB-78) was > 100 µM (inactive), the GI50 (DLD-1) was > 100 µM (inactive) and the GI50 (KM-20L2) was > 100 µM (inactive). The GI50 (HOP-18) was > 100 µM (inactive), the GI50 (LXFL 529) was > 100 µM (inactive) and the GI50 (DMS-114) was > 100 µM (inactive). The GI50 (M19-MEL) was > 100 µM (inactive).

For `CC(=O)NC1C(=O)CC(c2ccccc2)N(C)C1c1ccccc1` (stereo unspecified), the GI50 (SNB-78) was > 100 µM (inactive), the GI50 (RXF 631) was > 100 µM (inactive) and the GI50 (DLD-1) was > 100 µM (inactive). For the same compound, the GI50 (KM-20L2) was > 100 µM (inactive), the GI50 (LXFL 529) was > 100 µM (inactive) and the GI50 (DMS-114) was > 100 µM (inactive). For the same compound, the GI50 (M19-MEL) was > 100 µM (inactive).

For `CCCCCCCCCCCC(=O)OCC1OC(n2cc(F)c(=O)[nH]c2=O)C(NC(=O)OCc2ccccc2)C(OC(=O)CCCCCCCCCCC)C1O` (stereo unspecified), the GI50 (SNB-78) was > 100 µM (inactive), the GI50 (RXF 631) was > 100 µM (inactive) and the GI50 (DLD-1) was > 100 µM (inactive). The GI50 (KM-20L2) was > 100 µM (inactive), the GI50 (XF498) was > 100 µM (inactive) and the GI50 (HOP-18) was > 100 µM (inactive). For the same compound, the GI50 (LXFL 529) was > 100 µM (inactive), the GI50 (DMS-114) was > 100 µM (inactive) and the GI50 (M19-MEL) was > 100 µM (inactive).

In the case of `CC12CCC3(C1)[C@H](CC2=O)C[C@@H](OC(=O)c1ccccc1)C1C(C)(CO)CCC[C@@]13C` (stereo partly specified), the GI50 (SNB-78) is reported as 34 µM (inactive), the GI50 (DLD-1) is reported as 2.48 µM (inactive) and the GI50 (KM-20L2) is reported as 1.82 µM (inactive). The GI50 (HOP-18) was 26.7 µM (inactive), the GI50 (LXFL 529) was 0.6 µM (active) and the GI50 (DMS-114) was 0.156 µM (active). For the same compound, the GI50 (M19-MEL) was 3.4 µM (inactive).

For `COc1ccc(NC(=O)C(=O)Cc2nc3ccc([N+](=O)[O-])cc3nc2O)c(OC)c1`, the GI50 (DLD-1) was > 100 µM (inactive), the GI50 (KM-20L2) was > 100 µM (inactive) and the GI50 (HOP-18) was 56.1 µM (inactive). For the same compound, the GI50 (LXFL 529) was > 100 µM (inactive), the GI50 (DMS-114) was > 100 µM (inactive) and the GI50 (M19-MEL) was > 100 µM (inactive).

`CN(C)c1ccc(/C=C2\CNC/C(=C\c3ccc(N(C)C)cc3)C2=O)cc1` was tested, and the GI50 (SNB-78) was > 100 µM (inactive), the GI50 (RXF 631) was 21.7 µM (inactive) and the GI50 (DLD-1) was 18.9 µM (inactive). The GI50 (KM-20L2) was 30.1 µM (inactive), the GI50 (XF498) was 16.4 µM (inactive) and the GI50 (HOP-18) was 18.9 µM (inactive). The GI50 (LXFL 529) was 37.4 µM (inactive), the GI50 (DMS-114) was 18.8 µM (inactive) and the GI50 (M19-MEL) was 18.4 µM (inactive).

In the case of `Nc1ccc2c(c1)CN1C(=O)c3ccccc3C1=N2` [DANIQUIDONE], the GI50 (SNB-78) is reported as 25 µM (inactive), the GI50 (DLD-1) is reported as 51.1 µM (inactive) and the GI50 (KM-20L2) is reported as 59 µM (inactive). The GI50 (HOP-18) was 108 µM (inactive), the GI50 (LXFL 529) was 82.8 µM (inactive) and the GI50 (DMS-114) was 70.5 µM (inactive). The GI50 (M19-MEL) was > 116 µM (inactive).
